Molecules are shown by their SMILES.

This series can be described thus: in vitro. To be noted: human, hek293t cells.
Regarding `N#CC(=Cc1ccc(N2CCCCCC2)cc1)C(=O)NCC1CCCO1` (stereo not shown) [9-H15, 3-[4-(azepan-1-yl)phenyl]-2-cyano-N-[(oxolan-2-yl)methyl]prop-2-enamide], the viability at 48 h, 25 µM was 71.9%. The value for `N#CC(=Cc1ccc(Cl)cc1)C(=O)Nc1ccccn1` [9-H16, 3-(4-chlorophenyl)-2-cyano-N-(pyridin-2-yl)prop-2-enamide] was 128%. The value for `N#CC(=Cc1ccc(-c2ccc(F)cc2)o1)C(=O)NC1CCCCC1` [9-H17, 2-cyano-N-cyclohexyl-3-[5-(4-fluorophenyl)furan-2-yl]prop-2-enamide] was 77.1%; that for `N#CC(=Cc1c(C2CC2)nc2sccn12)C(=O)NC1CCCCC1` [9-H18, 2-cyano-N-cyclohexyl-3-{6-cyclopropylimidazo[2,1-b][1,3]thiazol-5-yl}prop-2-enamide] was 86.8%; that for `N#CC(=Cc1ccc(Cl)cc1Cl)C(=O)Nc1nccs1` [9-H19, 2-cyano-3-(2,4-dichlorophenyl)-N-(1,3-thiazol-2-yl)prop-2-enamide] was 121%. The value for `N#CC(=Cc1ccco1)C(=O)NS(=O)(=O)c1cccc2cnccc12` [9-H20, 2-cyano-3-(furan-2-yl)-N-(isoquinoline-5-sulfonyl)prop-2-enamide] was 105%; that for `COc1cc(C=C(C#N)C(=O)NC2CCCCC2C)cc(OC)c1O` (stereo not shown) [9-H21, 2-cyano-3-(4-hydroxy-3,5-dimethoxyphenyl)-N-(2-methylcyclohexyl)prop-2-enamide] was 95.8%; that for `N#CC(=Cc1ccsc1)C(=O)NCc1ccco1` [9-H22, 2-cyano-N-[(furan-2-yl)methyl]-3-(thiophen-3-yl)prop-2-enamide] was 123%. On to `CCCn1c(C)cc(C=C(C#N)C(=O)N2CCCC2)c1C` [9-I03, 3-(2,5-dimethyl-1-propyl-1H-pyrrol-3-yl)-2-(pyrrolidine-1-carbonyl)prop-2-enenitrile], for which the viability at 48 h, 25 µM came to 134%. For `N#CC(=Cc1ccc(C(F)(F)F)cc1)C(=O)Nc1ccccc1` [9-I04, 2-cyano-N-phenyl-3-[4-(trifluoromethyl)phenyl]prop-2-enamide], the viability at 48 h, 25 µM worked out at 93.7%. The value for `COc1cc(CNC(=O)C(C#N)=Cc2ccco2)c2ccccc2n1` [9-I05, 2-cyano-3-(furan-2-yl)-N-[(2-methoxyquinolin-4-yl)methyl]prop-2-enamide] was 114%. Take `N#CC(=Cc1ccsc1)C(=O)Nc1ccc(Cl)cc1` [9-I06, N-(4-chlorophenyl)-2-cyano-3-(thiophen-3-yl)prop-2-enamide]: the viability at 48 h, 25 µM was 112%. As to `Cc1nn(C)c(C)c1C=C(C#N)C(=O)Nc1ccccc1F` [9-I07, 2-cyano-N-(2-fluorophenyl)-3-(1,3,5-trimethyl-1H-pyrazol-4-yl)prop-2-enamide], the viability at 48 h, 25 µM is 122%.

With `CN(C)c1ccc(C=C(C#N)C(=O)Nc2ccccc2C(=O)O)cc1` [9-I08, 2-{2-cyano-3-[4-(dimethylamino)phenyl]prop-2-enamido}benzoic acid], the viability at 48 h, 25 µM worked out at 95.5%. Next, `CC(C)NC(=O)C(C#N)=Cc1ccc(F)cc1` [9-I09, 2-cyano-3-(4-fluorophenyl)-N-(propan-2-yl)prop-2-enamide]: 119%. Regarding `COc1cc(C=C(C#N)C(=O)NCc2ccccc2)cc2c1OCCO2` [9-I10, N-benzyl-2-cyano-3-(8-methoxy-2,3-dihydro-1,4-benzodioxin-6-yl)prop-2-enamide], the viability at 48 h, 25 µM was 118%. On to `CC(C)NC(=O)C(C#N)=Cc1ccc(C(C)C)cc1` [9-I11, 2-cyano-N-(propan-2-yl)-3-[4-(propan-2-yl)phenyl]prop-2-enamide], for which the viability at 48 h, 25 µM was found to be 78.1%.

Regarding `Cc1cc(C=C(C#N)C(N)=O)c(C)n1-c1cccc2ccccc12` [9-I12, 2-cyano-3-[2,5-dimethyl-1-(naphthalen-1-yl)-1H-pyrrol-3-yl]prop-2-enamide], the viability at 48 h, 25 µM turned out to be 86.9%. In the case of `CCOc1cc(C=C(C#N)C(=O)NC(C)C)cc(Cl)c1O` [9-I13, 3-(3-chloro-5-ethoxy-4-hydroxyphenyl)-2-cyano-N-(propan-2-yl)prop-2-enamide], the viability at 48 h, 25 µM is 87.3%. Consider `N#CC(=Cc1cccnc1)C(=O)NCc1ccccc1` [9-I14, N-benzyl-2-cyano-3-(pyridin-3-yl)prop-2-enamide], for which the viability at 48 h, 25 µM is 113%. As to `Cc1c(C=C(C#N)C(=O)NCc2ccccc2)cc(C#N)n1C` [9-I15, N-benzyl-2-cyano-3-(5-cyano-1,2-dimethyl-1H-pyrrol-3-yl)prop-2-enamide], the viability at 48 h, 25 µM worked out at 134%. Next, `N#CC(=Cc1ccc(O)cc1)C(=O)NCCc1c(F)cccc1F` [9-I16, 2-cyano-N-[2-(2,6-difluorophenyl)ethyl]-3-(4-hydroxyphenyl)prop-2-enamide]: 121%; `Cc1cc(C)c(NC(=O)C(C#N)=Cc2ccc(C)o2)c(C)c1` [9-I17, 2-cyano-3-(5-methylfuran-2-yl)-N-(2,4,6-trimethylphenyl)prop-2-enamide]: 94.3%; `CC1=C(C#N)C(=O)N(C)C(=O)C1=Cc1ccc(-c2ccc(F)cc2)o1` [9-I18, 5-{[5-(4-fluorophenyl)furan-2-yl]methylidene}-1,4-dimethyl-2,6-dioxo-1,2,5,6-tetrahydropyridine-3-carbonitrile]: 125%. The value for `Cc1cccc(C=C(C#N)C(=O)Nc2ccc(F)cc2)c1` [9-I19, 2-cyano-N-(4-fluorophenyl)-3-(3-methylphenyl)prop-2-enamide] was 113%. The value for `N#CC(=Cc1c(F)cccc1F)C(=O)Nc1ccccc1Cl` [9-I20, N-(2-chlorophenyl)-2-cyano-3-(2,6-difluorophenyl)prop-2-enamide] was 114%. For `CC(C)(C)c1ccc(C=C(C#N)C(=O)Nc2ccc(C(=O)O)cc2)cc1` [9-I21, 4-[3-(4-tert-butylphenyl)-2-cyanoprop-2-enamido]benzoic acid], the viability at 48 h, 25 µM was 128%. Next, `Cc1ccccc1NC(=O)C(C#N)=Cc1c(Cl)nc2ccccn12` [9-I22, 3-{2-chloroimidazo[1,2-a]pyridin-3-yl}-2-cyano-N-(2-methylphenyl)prop-2-enamide]: 134%; `COc1cc(C=C(C#N)C(=O)Nc2nccs2)cc(OC)c1` [9-J03, 2-cyano-3-(3,5-dimethoxyphenyl)-N-(1,3-thiazol-2-yl)prop-2-enamide]: 104%. The value for `CC(NC(=O)C(C#N)=Cc1ccco1)c1cccc(-n2cccn2)c1` (stereo not shown) [9-J04, 2-cyano-3-(furan-2-yl)-N-{1-[3-(1H-pyrazol-1-yl)phenyl]ethyl}prop-2-enamide] was 95.9%; that for `Cc1ccc(C=C(C#N)C(=O)Nc2cccc3ncccc23)cc1` [9-J05, 2-cyano-3-(4-methylphenyl)-N-(quinolin-5-yl)prop-2-enamide] was 123%; that for `CCCCNC(=O)C(C#N)=Cc1ccc(C)s1` [9-J06, N-butyl-2-cyano-3-(5-methylthiophen-2-yl)prop-2-enamide] was 94.4%. Next, `CC(=Cc1ccccc1)C=C(C#N)C(=O)Nc1ccc2c(c1)OCCO2` [9-J07, 2-cyano-N-(2,3-dihydro-1,4-benzodioxin-6-yl)-4-methyl-5-phenylpenta-2,4-dienamide]: 79.5%; `C=CCNC(=O)C(C#N)=CC=Cc1ccccc1` [9-J08, 2-cyano-5-phenyl-N-(prop-2-en-1-yl)penta-2,4-dienamide]: 96.5%; `CC1CN(c2ccc(NC(=O)C(C#N)=Cc3ccco3)cc2)CC(C)O1` (stereo not shown) [9-J09, 2-cyano-N-[4-(2,6-dimethylmorpholin-4-yl)phenyl]-3-(furan-2-yl)prop-2-enamide]: 109%.

On to `N#CC(=Cc1coc2ccccc2c1=O)C(=O)NCCc1ccccc1` [9-J10, 2-cyano-3-(4-oxo-4H-chromen-3-yl)-N-(2-phenylethyl)prop-2-enamide], for which the viability at 48 h, 25 µM turned out to be 107%. As to `CCCCNC(=O)C(C#N)=Cc1c(Cl)cccc1Cl` [9-J11, N-butyl-2-cyano-3-(2,6-dichlorophenyl)prop-2-enamide], the viability at 48 h, 25 µM is 25.1%. The value for `N#CC(=Cc1c(F)cccc1F)C(=O)Nc1ccccc1F` [9-J12, 2-cyano-3-(2,6-difluorophenyl)-N-(2-fluorophenyl)prop-2-enamide] was 103%; that for `CC(C)NC(=O)C(C#N)=Cc1cccc(C(F)(F)F)c1` [9-J13, 2-cyano-N-(propan-2-yl)-3-[3-(trifluoromethyl)phenyl]prop-2-enamide] was 33.9%; that for `Cc1cc(C=C(C#N)C(=O)Nc2nccs2)ccc1-n1cncn1` [9-J14, 2-cyano-3-[3-methyl-4-(1H-1,2,4-triazol-1-yl)phenyl]-N-(1,3-thiazol-2-yl)prop-2-enamide] was 104%.

Turning to `Cc1cc(-n2c(C)cc(C=C(C#N)C(=O)NC3CCCC3)c2C)no1` [9-J15, 2-cyano-N-cyclopentyl-3-[2,5-dimethyl-1-(5-methyl-1,2-oxazol-3-yl)-1H-pyrrol-3-yl]prop-2-enamide], the viability at 48 h, 25 µM amounted to 91.8%.

As for `Cc1ncsc1C=C(C#N)C(=O)Nc1ccc(C(=O)N(C)C)cc1` [9-J16, 4-[2-cyano-3-(4-methyl-1,3-thiazol-5-yl)prop-2-enamido]-N,N-dimethylbenzamide], the viability at 48 h, 25 µM is 118%. Next, `Cc1nn(-c2ccccc2)c(Cl)c1C=C(C#N)C(=O)NC(C)C` [9-J17, 3-(5-chloro-3-methyl-1-phenyl-1H-pyrazol-4-yl)-2-cyano-N-(propan-2-yl)prop-2-enamide]: 98.2%; `N#CC(=Cc1ccco1)C(=O)NS(=O)(=O)N1CCc2ccccc21` [9-J18, 2-cyano-N-(2,3-dihydro-1H-indole-1-sulfonyl)-3-(furan-2-yl)prop-2-enamide]: 116%; `N#CC(=Cc1ccc2c(c1)OCCO2)C(=O)NC1CCCCC1` [9-J19, 2-cyano-N-cyclohexyl-3-(2,3-dihydro-1,4-benzodioxin-6-yl)prop-2-enamide]: 118%. The value for `CC(C)NC(=O)C(C#N)=Cc1cccc(F)c1F` [9-J20, 2-cyano-3-(2,3-difluorophenyl)-N-(propan-2-yl)prop-2-enamide] was 98%.

The record behind these values is article PMC11995724, “Antibiotic target discovery by integrated phenotypic and activity-based profiling of electrophilic fragments” (Cell chemical biology, 2025).
